The values below come from publication PMC7470021, “Functionality study of chalcone-hydroxypyridinone hybrids as tyrosinase inhibitors and influence on anti-tyrosinase activity” (Journal of Enzyme Inhibition and Medicinal Chemistry, 2020).

SMILES strings stand for the structures. Like-named read-outs stand apart in the source and are kept apart here.

Data set [1] addresses T1, monophenolase activity of mushroom tyrosinase (Agaricus bisporus, UniProt C7FF04). More on the design: method as in PMID 15231412. The conditions noted are these: at 50 μM, literature value; cited from earlier work.
Data set [2] has as its target T1, monophenolase activity of mushroom tyrosinase. Briefly: Monophenolase inhibition assay (L-tyrosine substrate, dopachrome absorbance at 475 nm). Conditions: pH 6.8, read-out: Inhibition (%) on monophenolase activity.
Description: L-Tyrosine and L-DOPA were used as reaction substrate for monophenolase and diphenolase assays, respectively. […] Finally, 20 units of enzyme was quickly added to the reaction mixture and incubated at 30 °C for 10 min. […] The assay was carried out in triplicate and DMSO was used as control[17].
Another data set deals with mushroom tyrosinase. Nature of the data set: Reversibility of inhibitory effect on tyrosinase (L-DOPA substrate). The data set is classed as biochemical. The conditions noted are these: inhibitor 0-25 µM, 30 °C, pH 6.8. From the text: Measurement method was substantially the same to that described above, changing the added concentration of the enzyme solution, different concentrations of inhibitor on mushroom tyrosinase L-DOPA as reaction substrate.

Data set [3] in a line: Copper(II) stability constants determination and pCu2+. The data set is classed as physicochemical. As to the method:
(§1) An automated titration system used in the study consists of a Metrohm 765 Dosimat autoburette, a Mettler Toledo MP230 pH metre with SENTEK pH electrode (P11), and an HP 8453 UV-visible spectrophotometer with a Hellem quartz flow cuvette being circulated through by a Gilson Mini-plus #3 pump—speed capability (20 ml/min). A potassium chloride electrolyte solution (0.1 M) was used to maintain the ionic strength. The temperature of the test solutions was maintained in a thermostatic jacketed titration vessel at 25 °C (± 0.1 °C) using a Fisherbrand Isotemp water bath. The pH electrodes were calibrated using GLEE[25] with data obtained by titrating a volumetric standard HCl (0.1 M) in KCl (0.1 M) with KOH (0.1 M) under an argon gas atmosphere in the vessel. The solution under investigation was stirred vigorously during the experiment. […] All instruments were interfaced to a computer and controlled by an in-house programme. An automated titration adopted the following strategy: the pH of a solution was increased by 0.1 pH unit by the addition of KOH solution (0.1 M) from the autoburette. The pH readings were judged to be stable if their values varied by less than 0.01 pH unit after a set incubation period. […] The cycle was repeated until the defined end point pH value was achieved. Titrations were carried out in the solution with molar ratio of DMSO: H2O being 0.2: 1 due to the solubility issue of samples and/or the corresponding copper(II) complexes. Under this condition, the pH metre readings are shifted, compared to the aqueous solution. All the titration data were analysed with the HypSpec2014 programme (http://www.hyperquad.co.uk/)[26]^,[27]. The speciation plot and pM values were calculated with the HYSS programme. Based on deferiprone titrations, pCu^2+ at pH 7.6, denoted as pCu^2+7.6, with [ligand]total = 10 µM and [Metal]total = 1 µM, were calculated as close approximations for pCu^2+ at pH 7.4 in the aqueous solution. Analytical grade reagent materials were used in the preparation of all solutions.

Data set [4] is described as follows: pKa determination by spectrophotometric titration. Format: physicochemical. Conditions: DMSO/water solution (molar ratio 0.2:1) with 0.1 M KCl, 25 °C. As to the method: as §1
On the set-up of data set [5]: method as in PMID 26239546. The conditions noted are these: literature value for kojic acid; cited from earlier work.
[6] abbreviates: 25 °C, 0.1 M KCl, DMSO:H2O molar ratio 0.2:1.

T1 sequence (G1K3P4 entry or part of it): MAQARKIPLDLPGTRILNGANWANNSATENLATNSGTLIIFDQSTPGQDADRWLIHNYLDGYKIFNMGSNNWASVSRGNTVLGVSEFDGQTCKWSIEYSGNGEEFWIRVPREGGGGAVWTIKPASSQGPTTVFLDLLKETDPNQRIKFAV
T1 sequence (C7FF04 1-392): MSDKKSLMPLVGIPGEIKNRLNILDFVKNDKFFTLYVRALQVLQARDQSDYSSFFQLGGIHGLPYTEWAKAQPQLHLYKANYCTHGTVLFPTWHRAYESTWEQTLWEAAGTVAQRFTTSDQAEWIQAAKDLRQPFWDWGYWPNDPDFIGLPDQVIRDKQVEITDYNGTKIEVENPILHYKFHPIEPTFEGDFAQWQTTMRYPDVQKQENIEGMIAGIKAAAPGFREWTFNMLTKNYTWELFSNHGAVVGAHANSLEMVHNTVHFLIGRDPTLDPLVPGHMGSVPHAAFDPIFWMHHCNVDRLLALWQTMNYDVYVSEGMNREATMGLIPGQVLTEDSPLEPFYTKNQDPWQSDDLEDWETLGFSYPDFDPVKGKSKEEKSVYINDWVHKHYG

As for `O=C(/C=C/c1ccc(O)cc1)c1ccc(O)cc1O` [2′,4′,4-trihydroxychalcone], in data set [1], the Inhibition rate was 67%. With `Cn1cc(O)c(=O)cc1/C=C/C(=O)c1ccc(F)cc1` [Compound 1a], the inhibition at 50 µM in data set [2] came to 85.3%. In the data set with mushroom tyrosinase, the “Reversibility of inhibition on diphenolase activity of tyrosinase” value is “reversible”.

As for `COc1ccc(C(=O)/C=C/c2cc(=O)c(O)cn2C)c(O)c1` [Compound 1b], in data set [2], the inhibition at 50 µM came to 66.7%.

Take `COc1ccc(C(=O)/C=C/c2cc(=O)c(O)co2)c(OC)c1` [Compound 1c]: in data set [2], the inhibition at 50 µM was 50.3%. `O=C(/C=C/c1cc(=O)c(O)c[nH]1)c1ccc(F)cc1` [Compound 1d]: in data set [2], the inhibition at 50 µM stood at 89.5%. Besides, the “Reversibility of inhibition on diphenolase activity of tyrosinase” value with mushroom tyrosinase was “reversible”.

In the case of `CCn1cc(O)c(=O)cc1/C=C/C(=O)c1ccccc1` [Compound 1e], the inhibition at 50 µM in data set [2] is 63.3%. In the case of `CCn1cc(O)c(=O)cc1/C=C/C(=O)c1ccc(O)c(O)c1` [Compound 1f], the inhibition at 50 µM in data set [2] was determined as 78.8%. In the case of `CCn1cc(O)c(=O)cc1/C=C/C(=O)c1ccc(OC)cc1O` [Compound 1g], the inhibition at 50 µM in data set [2] was determined as 71.4%. For `CCn1cc(O)c(=O)cc1/C=C/C(=O)c1ccc(F)cc1` [Compound 1h], the inhibition at 50 µM in data set [2] is 57.8%. As for `Cn1cc(O)c(=O)cc1/C=C/C(=O)c1ccccc1` [Compound 1i], the inhibition at 50 µM in data set [2] is 72.8%. Consider `CCCCn1cc(O)c(=O)cc1/C=C/C(=O)c1ccc(O)c(O)c1` [Compound 1j], for which the inhibition at 50 µM in data set [2] was found to be 69.4%. For `CCCCn1cc(O)c(=O)cc1/C=C/C(=O)c1ccc(OC)cc1O` [Compound 1k], in data set [2], the inhibition at 50 µM amounted to 64.6%. As to `CCCCn1cc(O)c(=O)cc1/C=C/C(=O)c1ccc(F)cc1` [Compound 1l], in data set [2], the inhibition at 50 µM was 50.3%. With `O=C(/C=C/c1cc(=O)c(O)c[nH]1)c1ccccc1` [Compound 1m], in data set [2], the inhibition at 50 µM is 66.7%.

On to `COc1ccc(C(=O)/C=C/c2cc(=O)c(O)c[nH]2)cc1OC` [Compound 1n], for which the inhibition at 50 µM in data set [2] came out at 87.6%. Further, the “log β1 (log stability constant of copper complex CuLH)” value in data set [3] (setting [6]) stood at 20.9. The “log β2 (log stability constant of copper complex CuL2H2)” value in data set [3] (setting [6]) amounted to 40.4. The “pCu2+” value in data set [3] ([Cu]total=10^-6 M, [L]total=10^-5 M, pH 7.4, calculated from pKa and log stability constants with HYSS) was 9.9. Also, the pKa was 12 in data set [4] (DMSO:H2O molar ratio 0.2:1, read-out: pKa (1-NH)); 3.3 in data set [4] (DMSO:H2O molar ratio 0.2:1, read-out: pKa (4-oxo functional group)); 8.8 in data set [4] (DMSO:H2O molar ratio 0.2:1, read-out: pKa (5-hydroxyl group)). Consider `COc1ccc(C(=O)/C=C/c2cc(=O)c(O)c[nH]2)c(O)c1` [Compound 1o], for which the inhibition at 50 µM in data set [2] amounted to 63.3%. For `O=c1cc(CO)occ1O` [Kojic acid], the “pCu2+” value in data set [5] was 7.3.
